Data published in patent US20250188618A1, “AMINO ACID DERIVATIVES AND SULFUR DERIVATIVES AS BIODEGRADABLE CORROSION INHIBITORS” (ChampionX LLC, priority 2023, published 2025).

Experiments:
[1] = Bubble cell test, corrosion rate by linear polarization resistance (LPR); conditions: during 2 hour pre-corrode, prior to the addition of corrosion inhibitor; CO2 saturated 3% NaCl brine 80% / hydrocarbon oil 20%, 65° C.
Procedure: The derivatized succinate corrosion inhibitors made according to Examples 1-5 were evaluated using bubble cell tests to assess corrosion performance using linear polarization resistance testing. The derivatized succinate corrosion inhibitors were combined with the sulfur synergist 2-mercaptoethanol in a solution so that the concentrations of corrosion inhibitor and 2-mercaptoethanol were 10% and 1% by weight, respectively. Methanol, isopropanol, water, and combinations thereof were used as solvents. Acids or bases were sometimes added either to form or neutralize salts of the inhibitors to influence their solubility. This solution was then dosed into the bubble cell at a concentration of 50 ppm, ultimately providing 5 ppm of corrosion inhibitor and 0.5 ppm of 2-mercaptoethanol. The bubble test simulates low flow areas where little or no mixing of water and oil occurs. The test was conducted using a mixed fluid composed of 80% by volume of synthetic brine composed of 3% sodium chloride and 20% of hydrocarbon oil.
The brine without inhibitor was first placed into kettles and purged with carbon dioxide for one hour resulting in carbon dioxide saturated brine. The brine was heated to 65° C., and electrodes were introduced into the de-aerated brine, followed by de-aerated oil, all of which was continually purged with carbon dioxide at 1 bar CO2 to saturate the brine for a 2 hour pre-corrode. The kettles were magnetically stirred at 100 revolutions per minute (rpm) for the duration of the test. The CO2 purge was switched to a blanket, the corrosion inhibitor solution was added, and the test timer started. Data were collected overnight for 15-hour test duration.
The corrosion rate was measured by Linear Polarization Resistance (LPR) techniques. The working electrode used was carbon steel (C1018 grade). The counter and reference electrodes were both Hastelloy. The electrodes were all cleaned and polished prior to testing. Corrosion rates were given in milli-inches per year (mpy), calculated from the current measured by LPR. Corrosion inhibition is compared to two known corrosion inhibitors: a cationic surfactant (alkylbenzyldimethylammonium chloride) and a Tall oil fatty acid (TOFA)-diethylenetriamine (DETA) imidazoline.
The bubble cell results provide a low shear screening designed for continuous application. The performance is measured as percent protection by comparing the initial corrosion rate during pre-corrode, prior to the addition of a corrosion inhibitor, to the final corrosion rate, measured 15 hours after corrosion inhibitor dosing.

[2] = Wheel box testing, corrosion inhibition persistence for batch applications; conditions: 1% corrosion inhibitor active in 3% NaCl, 60° C., saturated CO2 at 1 atm, 96 hour, average of 2 runs; inhibitor in neutral form
Procedure: The corrosion inhibitors were tested using wheel box testing which is a screening method for measuring corrosion inhibition persistence for batch applications. Metal coupons are dip-coated in a solution of the inhibitor in neutral form (non-salt), then placed onto a wheel and immersed in corrosive solution. The wheel is rotated in the solution under desired conditions. At regular time intervals, the solution without inhibitor is replenished. At the conclusion of the test, corrosion rates are measured as a function of the mass loss of the metal coupons.

Row | Compound | Initial corrosion rate (mpy) [1] [mpy] | Wheel-Box, % Inhibition [2] [%]
1 | N-(oleyl)aspartic acid, 2-ethylhexyl ester [Example 4] | 213.0 | 64
2 | alkylbenzyldimethylammonium chloride [Cationic surfactant control, reference compound] | 233.4 | 
3 | CCCCCCCCCCCCSC(CC(=O)O)C(=O)[O-].[Na+] (centres unmarked) [Example 8, 2-(dodecylthio)succinic acid, monosodium salt] | 137.2 | 
4 | N-oleylaspartic acid, iso-C11-14-alkyl ester [Example 2] | 252.4 | 
5 | CCCCCCCC/C=C\CCCCCCCCN[C@@H](CC(=O)O)C(=O)[O-].[K+] [Example 5, N-(oleyl)aspartic acid, monopotassium salt] | 103.3 | 
6 | N-(2-ethylhexyl)aspartic acid, C12-15-alkyl ester [Example 1] | 245.7 | 
7 | 2-sulfosuccinic acid, iso-C11-14-alkyl ester, disodium salt [Example 6] | 186.9 | 
8 | 6,9-dioxa-3,12-diazatetradecane-1,2,13,14-tetracarboxylic acid, dioleyl ester [Example 10] | 157.2 | 42
9 | N-(2-ethylhexyl)aspartic acid, 2-ethylhexyl ester [Example 3] | 248.8 | 56
10 | CCCCCCCCCCCCOC(=O)CC1NCCN(CCN)C1=O (centres unmarked) [Example 9, (4-(2-aminoethyl)-3-oxo-2-piperazinyl)acetic acid, dodecyl ester] | 204.3 | 
11 | 2-(carboxymethylthio)succinic acid, iso-C11-14-alkyl ester, monosodium salt [Example 7] | 160.1 | 
